Test results as given in patent US8093383B2, “P70 S6 kinase inhibitors” (Eli Lilly and Company, priority 2007, dated 2012).
Marks after values point to notes of the source that are not given here.

Experiments:
[1] = tested on: HUVEC / neo NHDF co-culture cord formation; test: Angiogenesis Cord Formation Assay; assay type: cell-based; conditions: Homo sapiens, 288 h; 20 ng/mL VEGF, 12 day; cord area and angiogenesis index; read-out: IC50
Description: Human neonatal dermal fibroblast cells (neo NHDF) are seeded into Parkard 96 well plate on the first day, and incubated in the 37° C. and 5% CO2 incubator. Human umbilical vein endothelial cells (HUVEC) are then plated on the top of neo NHDF cells. Starting the third day, the co-culture is treated with eight-dose series of the test compound (starting with 20 μM, 1:3 serial dilution) in the presence of 20 ng/mL vascular endothelial growth factor (VEGF). The compound and VEGF are replenished every two to three days. The assay is conducted over a 12 day period. Cells are fixed by cold 70% ethanol for 30 minutes on the 12th day and processed for anti human CD31 immunofluorescence. Cultures are incubated with mouse anti human CD31 antibody and then stained by goat anti mouse alexa 488 secondary antibody. Cells are also stained by Hoechst to visualize the nucleus. After the staining, the cord formation is captured and quantified using Cellomics Arrayscan® VTI high content image analysis platform adopting the tube formation BioApplication. Two parameters, the cord area and angiogenesis index, are used to calculate the relative potency of the test compound in this angiogenesis assay. The compounds of Examples 5 and 10 were tested and analyzed essentially as described above.

U87MG = test: Cell assay (Alamar Blue, 72 hours) U87MG; assay type: cell-based; conditions: Homo sapiens, U-87 MG
Description: Cells are maintained, then typsinized and suspended in Dulbecco's modified Eagle's medium (DMEM_containing 10% fetal bovine serum (FBS), 25 mM 4-(2-hydroxyethyl)-1-piperazineethanesulfonic acid (HEPES), 1.0 mM Sodium Pyruvate and 0.1 mM Non Essential Amino Acids (NEAA). 1×10^3 HCT116 and 2×10^3 Cells may be seeded in 50 μL in 96 well plates and incubated in 5% CO2 at 37° C. overnight. Compounds are prepared at desired starting concentrations and serial diluted in DMSO. 4 μL of diluted compounds are transferred in 1 mL 10% FBS DMEM to make up 2× concentrations as added 50 μL to the 50 μL in the presence of cells for dosing. The plates are incubated at 37° C. in 5% CO2 for 72 hours. At the end of incubation period, 10 μL Alamar Blue is added and after 2 hours reaction the measurement is determined in CytoFluor at 530 nm excitation, 580 nm emission and Gain 45. The following compounds were tested in the following cell lines essentially as described above.

p70 S6K = target: T1, p70 S6K (Homo sapiens, UniProt P23443); test: Determination of p70 S6K In Vivo Target Inhibition (HCT 116); design: species or system athymic nude mice; conditions: HCT 116 xenograft, PO; potency based on plasma exposure; phosphorylation of S6RP serine 240/244
T1 construct: endogenous in cells; host or cells: HCT 116 human colon carcinoma xenograft tumours in athymic nude mice
T1 sequence (P23443 whole entry): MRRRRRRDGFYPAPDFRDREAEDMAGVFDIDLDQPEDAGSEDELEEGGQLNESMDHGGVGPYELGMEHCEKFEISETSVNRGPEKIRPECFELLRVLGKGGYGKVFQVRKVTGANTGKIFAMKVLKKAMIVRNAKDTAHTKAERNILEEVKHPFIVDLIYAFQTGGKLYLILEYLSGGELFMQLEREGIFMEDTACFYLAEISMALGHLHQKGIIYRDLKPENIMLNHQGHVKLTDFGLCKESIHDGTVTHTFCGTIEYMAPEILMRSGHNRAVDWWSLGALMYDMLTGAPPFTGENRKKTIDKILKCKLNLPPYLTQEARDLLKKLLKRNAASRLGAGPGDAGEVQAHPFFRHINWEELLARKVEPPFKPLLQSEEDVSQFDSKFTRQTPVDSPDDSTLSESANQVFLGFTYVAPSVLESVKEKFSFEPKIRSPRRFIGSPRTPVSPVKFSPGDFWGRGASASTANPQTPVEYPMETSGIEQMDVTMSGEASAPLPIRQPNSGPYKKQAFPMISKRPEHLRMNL
Description: HCT 116 human colon carcinoma cells* (5×10^6) are subcutaneously implanted into the flank of athymic nude mice in 0.2 mL of matrigel. Two weeks post-implantation, mice are dosed PO according to a time course, single dose/single time point, or dose response protocol for the determination of TMED50 (threshold minimum effective dose). Tumors are flash frozen at harvest and blood is collected for the determination of parent compound plasma exposure and the calculation of TMEC50 (threshold minimum effective concentration) in the case of dose response studies. Tumors or tissues are homogenized in XY Lysis buffer (10 μg/mL Leupeptin, 10 μg/mL Trypsin-Chymotrypsin Inhibitor, 10 μg/mL Tosyl phenylalanyl chloromethyl ketone (TPCK), 10 μg/mL Aprotinin, 60 mM Beta-Glycerol Phosphate, 1% Triton X100, 25 mM Tris pH 7.5, 2.5 mM Pyrophosphate, 150 mM NaCl, 2 mM p-tosyl-L-arginine methyl ester (TAME), 15 mM para-nitrophenyl phosphate (pNPP), 5 mM Benzamidine, 1 mM Na Vanadate, 10 mM NaF, 50 μg/mL phenylmethane sulofnyl fluoride (PMSF), 1 mM DTT, 15 mM EDTA pH 8.0, 5 mM EGTA pH 8.0, 1 μM Microcystin, 1 μM Okadaic Acid, and 1 Roche Complete protease inhibitor mini-tablet per 10 mL) using Lysing Matrix A tubes (MP Biomedicals, Solon, Ohio, cat# 6910-500) and a BIO101 Thermo Savant Fast Prep FP12. Lysates are aliquoted and either assayed immediately or stored at −80° C. for later testing. In Vivo Target Inhibition of p70 S6K is measured utilizing Meso Scale Discovery (Gaithersburg, Md.) ELISA technology to assess effects of the compound on phosphorylation of the serine 240/244 site of the downstream effector S6RP. Phosphorylation of p70 S6K(T389) and Akt(S473) is also assessed using this technology in a multiplex format. In summary, 20 μg of lysate is added to a carbon electrode 96-well plate pre-spotted with the appropriate capture antibodies. The protein of interest is probed using a ruthenium labeled detection antibody. Upon the passage of current over the electrode in the presence of read buffer containing the co-reactant TPA, electro-chemiluminescence results in the generation of light which is quantified and recorded using the MSD Sector 6000 instrument. For each study, percent inhibitions are calculated relative to the vehicle control group and ANOVA analysis is performed using the JMP software package for the determination of statistical significance. The following compounds were tested essentially as described above and have the following potencies based on plasma exposure.

[2] = tested on: HCT 116 human colon carcinoma cells; test: Determination of p70 S6K In Vivo Efficacy (HCT 116 xenograft tumor growth); design: species or system athymic nude mice
Description: HCT 116 human colon carcinoma cells (5×10^6) are subcutaneously implanted into the flank of athymic nude mice in 0.2 mL of matrigel. One week post-implantation, mice are dosed PO according to the pharmacokinetics and the pharmacodynamics of the molecule to maintain 30-50% or 60-90% pS6 Inhibition over a 24 hr period. Dosing is continued for at least 21 days. Tumor volumes are measured bi-weekly to evaluate drug related tumor growth reduction utilizing standard methods. At the end of the study, tumors are flash-frozen at harvest and blood is collected for the determination of parent compound plasma exposure. The compound of Example 5 was tested essentially as described above.

Cl.FC(F)(F)c1cccc(-c2c[nH]c(C3CCN(c4ncnc5[nH]ncc45)CC3)n2)c1 [Example 5, 4-{4-[4-(3-(Trifluoromethyl)-phenyl)-1H-imidazol-2-yl]-piperidin-1-yl}-1H-pyrazolo[3,4-d]pyrimidine hydrochloride]
IC50 [1]: 2.92 µM | IC50 (U87MG): 14.6 µM | IC50 (p70 S6K): 7.3 µM | Tumor Volume ([2]; 30 mg/kg PO (BID × 21), Day 8, mean of 10 animals): 36.5 mm^3 | Tumor Volume ([2]; 30 mg/kg PO (BID × 21), Day 13, mean of 10 animals): 58.7 mm^3 | Tumor Volume ([2]; 30 mg/kg PO (BID × 21), Day 16, mean of 10 animals): 90.9 mm^3 | Tumor Volume ([2]; 30 mg/kg PO (BID × 21), Day 20, mean of 10 animals): 134.6 mm^3 | Tumor Volume ([2]; 30 mg/kg PO (BID × 21), Day 23, mean of 10 animals): 192.7 mm^3 | Tumor Volume ([2]; 30 mg/kg PO (BID × 21), Day 27, mean of 10 animals): 296.3 mm^3 | Tumor Volume ([2]; 60 mg/kg PO (BID × 21), Day 8, mean of 10 animals ± standard deviation): 28.8 ± 2.6^b mm^3 | Tumor Volume ([2]; 60 mg/kg PO (BID × 21), Day 13, mean of 10 animals ± standard deviation): 42.1 ± 6.2*** mm^3 | Tumor Volume ([2]; 60 mg/kg PO (BID × 21), Day 16, mean of 10 animals ± standard deviation): 72.1 ± 11.8*** mm^3 | Tumor Volume ([2]; 60 mg/kg PO (BID × 21), Day 20, mean of 10 animals ± standard deviation): 139.0 ± 26.4*** mm^3 | Tumor Volume ([2]; 60 mg/kg PO (BID × 21), Day 23, mean of 10 animals ± standard deviation): 188.4 ± 25.9*** mm^3 | Tumor Volume ([2]; 60 mg/kg PO (BID × 21), Day 27, mean of 10 animals ± standard deviation): 280.0 ± 36.1*** mm^3 | Tumor Volume ([2]; 60 mg/kg PO (QD × 21), Day 8, mean of 10 animals ± standard deviation): 30.6 ± 3.4^b mm^3 | Tumor Volume ([2]; 60 mg/kg PO (QD × 21), Day 13, mean of 10 animals ± standard deviation): 57.8 ± 10.7** mm^3 | Tumor Volume ([2]; 60 mg/kg PO (QD × 21), Day 16, mean of 10 animals ± standard deviation): 85.0 ± 13.3*** mm^3 | Tumor Volume ([2]; 60 mg/kg PO (QD × 21), Day 20, mean of 10 animals ± standard deviation): 142.5 ± 18.4*** mm^3 | Tumor Volume ([2]; 60 mg/kg PO (QD × 21), Day 23, mean of 10 animals ± standard deviation): 194.5 ± 25.7*** mm^3 | Tumor Volume ([2]; 60 mg/kg PO (QD × 21), Day 27, mean of 10 animals ± standard deviation): 252.7 ± 34.4*** mm^3 | melting point: 306 °C
